Experimental data published in paper PMC11995724, “Antibiotic target discovery by integrated phenotypic and activity-based profiling of electrophilic fragments” (Cell chemical biology, 2025).

Assay: in vitro
Details: human, hek293t cells

SMILES	viability at 48 h, 25 µM [%]
C=CC(=O)NCc1nc2ccccc2s1 [1-I12, N-[(1,3-benzothiazol-2-yl)methyl]prop-2-enamide]	35.8
C=CC(=O)NCC(c1c(F)cccc1F)N1CC(C)OC(C)C1 (stereo not shown) [1-I13, N-[2-(2,6-difluorophenyl)-2-(2,6-dimethylmorpholin-4-yl)ethyl]prop-2-enamide]	72.5
C=CC(=O)NCc1ccnc(N2CCSCC2)c1 [1-I14, N-{[2-(thiomorpholin-4-yl)pyridin-4-yl]methyl}prop-2-enamide]	22.1
C=CC(=O)N[C@@H](CC(N)=O)c1cccc(Cl)c1 [1-I15, N-[(1S)-2-carbamoyl-1-(3-chlorophenyl)ethyl]prop-2-enamide]	81.6
C=CC(=O)Nc1ccc(C(C)CC(N)=O)cc1 (stereo not shown) [1-I16, 3-[4-(prop-2-enamido)phenyl]butanamide]	72.6
C=CC(=O)Nc1ccc(-n2cnnn2)c(F)c1 [1-I17, N-[3-fluoro-4-(1H-1,2,3,4-tetrazol-1-yl)phenyl]prop-2-enamide]	39.9
C=CC(=O)NCc1cccc(-c2nnc[nH]2)c1 [1-I18, N-{[3-(4H-1,2,4-triazol-3-yl)phenyl]methyl}prop-2-enamide]	172
C=CC(=O)Nc1cc(CC(C)(C)C)no1 [1-I19, N-[3-(2,2-dimethylpropyl)-1,2-oxazol-5-yl]prop-2-enamide]	1.69
C=CC(=O)N1CCC(C(=O)Nc2cc(OCC)ccc2Cl)CC1 [1-I20, N-(2-chloro-5-ethoxyphenyl)-1-(prop-2-enoyl)piperidine-4-carboxamide]	122
C=CC(=O)Nc1cc(C(C)C)ccc1C(C)C [1-I21, N-[2,5-bis(propan-2-yl)phenyl]prop-2-enamide]	101
C=CC(=O)Nc1ccc(F)c(C(=O)CC)c1 [1-I22, N-(4-fluoro-3-propanoylphenyl)prop-2-enamide]	101
C=CC(=O)NCc1ccccc1S(=O)(=O)NC(C)(C)C [1-J03, N-{[2-(tert-butylsulfamoyl)phenyl]methyl}prop-2-enamide]	160
C=CC(=O)NCC(C)(C)Cn1cccn1 [1-J04, N-[2,2-dimethyl-3-(1H-pyrazol-1-yl)propyl]prop-2-enamide]	69.4
C=CC(=O)N1CCCC1Cn1c(C)nc2ccccc21 (stereo not shown) [1-J05, 1-{2-[(2-methyl-1H-1,3-benzodiazol-1-yl)methyl]pyrrolidin-1-yl}prop-2-en-1-one]	149
C=CC(=O)NC1CCSC(C)C1 (stereo not shown) [1-J06, N-(2-methylthian-4-yl)prop-2-enamide]	78.4
C=CC(=O)N1CCN(S(=O)(=O)Cc2ccon2)CC1 [1-J07, 1-{4-[(1,2-oxazol-3-yl)methanesulfonyl]piperazin-1-yl}prop-2-en-1-one]	112
C=CC(=O)Nc1cccc(-c2nc(COC)no2)c1C [1-J08, N-{3-[3-(methoxymethyl)-1,2,4-oxadiazol-5-yl]-2-methylphenyl}prop-2-enamide]	79
C=CC(=O)N(Cc1c(C)cc(Cl)cc1C)CC1COCCO1 (stereo not shown) [1-J09, N-[(4-chloro-2,6-dimethylphenyl)methyl]-N-[(1,4-dioxan-2-yl)methyl]prop-2-enamide]	81.4
C=CC(=O)NCc1cnc(CC(C)C)s1 [1-J10, N-{[2-(2-methylpropyl)-1,3-thiazol-5-yl]methyl}prop-2-enamide]	84.2
C=CC(=O)N(Cc1cn(C)cn1)[C@H]1CCCc2ccc(C)cc21 [1-J11, N-[(1S)-7-methyl-1,2,3,4-tetrahydronaphthalen-1-yl]-N-[(1-methyl-1H-imidazol-4-yl)methyl]prop-2-enamide]	88.8

SMILES	viability at 48 h, 25 µM [%]
C=CC(=O)Nc1nc(C)c(CC(C)C)s1 [1-J12, N-[4-methyl-5-(2-methylpropyl)-1,3-thiazol-2-yl]prop-2-enamide]	0.934
C=CC(=O)Nc1cc(OC)ccc1C(=O)N(C)OC [1-J14, N,4-dimethoxy-N-methyl-2-(prop-2-enamido)benzamide]	74.9
C=CC(=O)N(Cc1cc(-c2ccco2)n(C)n1)C1CCCCC1 [1-J15, N-cyclohexyl-N-{[5-(furan-2-yl)-1-methyl-1H-pyrazol-3-yl]methyl}prop-2-enamide]	83.8
C=CC(=O)Nc1ncc(C2CCCC(C)C2)s1 (stereo not shown) [1-J16, N-[5-(3-methylcyclohexyl)-1,3-thiazol-2-yl]prop-2-enamide]	0.801
C=CC(=O)NCc1cn([C@@H]2COC[C@H]2OC)nn1 [1-J17, N-({1-[(3R,4S)-4-methoxyoxolan-3-yl]-1H-1,2,3-triazol-4-yl}methyl)prop-2-enamide]	96.5
C=CC(=O)N1CCCC(S(C)(=O)=O)C1 (stereo not shown) [1-J18, 1-(3-methanesulfonylpiperidin-1-yl)prop-2-en-1-one]	63.9
C=CC(=O)NCc1ccccc1-n1ccc(C)n1 [1-J19, N-{[2-(3-methyl-1H-pyrazol-1-yl)phenyl]methyl}prop-2-enamide]	126
C=CC(=O)N1CCN(c2nc(CC)ns2)CC1 [1-J20, 1-[4-(3-ethyl-1,2,4-thiadiazol-5-yl)piperazin-1-yl]prop-2-en-1-one]	46.2
C=CC(=O)Nc1nc2c(s1)-c1cc(OC)ccc1CC2 [1-J21, N-{8-methoxy-4H,5H-naphtho[2,1-d][1,3]thiazol-2-yl}prop-2-enamide]	118
C=CC(=O)Nc1sc2c(c1C(=O)c1ccc(C)cc1)CCOC2 [1-J22, N-[3-(4-methylbenzoyl)-4H,5H,7H-thieno[2,3-c]pyran-2-yl]prop-2-enamide]	0.993
C=CC(=O)NCc1nc(C(=O)O)c(C)s1 [1-K03, 5-methyl-2-[(prop-2-enamido)methyl]-1,3-thiazole-4-carboxylic acid]	80.8
C=CC(=O)Nc1cccc(N2CCOCC2)c1 [1-K04, N-[3-(morpholin-4-yl)phenyl]prop-2-enamide]	74.1
C=CC(=O)N1CCN(c2nc3ccccc3o2)CC1 [1-K05, 1-[4-(1,3-benzoxazol-2-yl)piperazin-1-yl]prop-2-en-1-one]	75.6
C=CC(=O)N[C@@H](C)c1ccccc1OC [1-K06, N-[(1S)-1-(2-methoxyphenyl)ethyl]prop-2-enamide]	84.3
C=CC(=O)NCC1CSCCS1 (stereo not shown) [1-K07, N-[(1,4-dithian-2-yl)methyl]prop-2-enamide]	78.1
C=CC(=O)NCc1ccsc1-n1cccc1 [1-K08, N-{[2-(1H-pyrrol-1-yl)thiophen-3-yl]methyl}prop-2-enamide]	153
C=CC(=O)N1CCn2cccc2C12COC2 [1-K09, 1-{3',4'-dihydro-2'H-spiro[oxetane-3,1'-pyrrolo[1,2-a]pyrazin]-2'-yl}prop-2-en-1-one]	80.6
C=CC(=O)NCc1ccc(OC)cc1 [1-K10, N-[(4-methoxyphenyl)methyl]prop-2-enamide]	92
C=CC(=O)Nc1cc(S(=O)(=O)N(C)C)cc(C)c1C [1-K11, N-[5-(dimethylsulfamoyl)-2,3-dimethylphenyl]prop-2-enamide]	71.3
C=CC(=O)NC1CCCN(Cc2ccccc2)C1 (stereo not shown) [1-K12, N-(1-benzylpiperidin-3-yl)prop-2-enamide]	82.8
